Key:
[1] = tested on: J-Lat 10.6 cells (latent HIV provirus); settings: J-Lat clone 10.6
Procedure: (§1) (FIG. 2A) JLat 5A8 or 10.6 clones were stimulated with appropriate stimuli in the presence or absence of L-glutamic acid or vehicle control (cell culture suitable HCl solution). Geometric mean fluorescence intensity (MFI) of HIV-regulated GFP expression was measured by flow cytometry. Cell viability was determined by LIVE/DEAD aqua staining. (FIG. 2B) J-Lat 5A8 cells (n=3) and (FIG. 2C) J-Lat 10.6 cells (n=3), were treated with PMA/I (2 nM/500 nM), ImmunoCult Human CD3/CD28 T Cell Activator (25 μl per 10^6 cells), or TNFα (10 ng/ml) in the presence or absence of L-glutamic acid (5 mM) or appropriate control. Bar graphs display mean±SD values, and statistical comparisons were performed using two-tailed unpaired t-tests. (FIG. 2D) THP-1 cells were differentiated into macrophage-like cells using PMA. Cells were then treated with L-glutamic acid (5 mM), Pyruvic acid (2 mM), or appropriate controls for 2 hours prior to LPS/IFNγ stimulation for 5 hours. […] Bar graphs display mean±SD, and statistical comparisons were performed using two-tailed unpaired t-tests. […] Bar graphs display mean±SD, and statistical comparisons were performed using two-tailed unpaired t-tests.

[2] = tested on: J-Lat 5A8 cells (latent HIV provirus); settings: J-Lat clone 5A8
Procedure: as §1
Bar graphs display mean±SD values, and statistical comparisons were performed using two-tailed unpaired t-tests.

[3] = tested on: THP-1 derived macrophage-like cells; assay: LPS/IFNγ-mediated cytokine secretion from THP-1 derived macrophage-like cells (MSD multiplex, ELISA); type: cell-based; settings: 2 h before LPS/IFNγ for 5 h
Procedure: as §1
In-vitro examination of the impact of L-glutamic acid and pyruvate on myeloid inflammation. THP1 cells were plated in 24-well plates at a density of 7×10^5 cells per well. To differentiate them into macrophages-like, 100 nM of PMA (Sigma catalog #P8139) was added and incubated for 72 hours. After incubation, media was aspirated, and each well was gently washed twice with R10 media. Cells were then rested for 24 hours on R10 media without PMA. After 24 hours, cells were washed again with serum-free RPMI 1640 media and kept on this media for the rest of experiment. Macrophage-like THP1 cells were pre-incubated with L-glutamic acid (5 mM) or Sodium Pyruvate solution (2 mM, Sigma catalog #S8636-100 ml) for 2 hours before stimulating with Escherichia coli serotype O127:B8 LPS (50 ng/ml; Sigma catalog #L3129-10MG) and IFNγ (10 ng/ml; R&D Systems catalog #285-IF-100, respectively). After 5 hours of incubation with LPS/IFNγ, culture supernatants were collected for cytokine quantitation. Supernatant levels of IL-10, IL-12p70, IL-13, IL-1β, IL-2, IL-4, IL-6, and IL-8 were determined using U-PLEX Proinflam Combo 1 (Meso Scale Diagnostic #K15049k-1) according to manufacture. Levels of TNF-α were quantified using DuoSet ELISA kits (R&D Systems catalog #DY210-05).
Beyond the direct impact on latent viral reactivation, plasma metabolites may exert effects on myeloid inflammation, and such effects may underlie HIV control during ATI. This possibility was tested by examining the effects of L-glutamic acid and pyruvate on lipopolysaccharides (LPS)-mediated secretion of pro-inflammatory cytokines from THP-1 derived macrophage-like cells. These cells are characterized by high basal glycolytic activity, which closely reflects the Warburg-like phenotype observed in HIV-infected individuals37. […] Cells were treated with L-glutamic acid, pyruvate, or appropriate controls for 2 h before stimulating with LPS and IFNγ for 5 h (FIG. 2D).

[4] = L-glutamic acid 5 mM with stimuli
[5] = L-glutamic acid 5 mM, 24 hours, vs stimuli alone
[6] = pyruvate 2 mM, listed as Pyruvate

SMILES	Cell viability (LIVE/DEAD aqua staining) [1, 4]	PMA/ionomycin-induced reactivation of latent HIV (GFP MFI) [1, 5]	TNFα-induced reactivation of latent HIV (GFP MFI) ([1]; TNFα 10 ng/ml, L-glutamic acid 5 mM, 24 hours)	Cell viability (LIVE/DEAD aqua staining) [2, 4]	PMA/ionomycin-induced reactivation of latent HIV (GFP MFI) [2, 5]	αCD3/αCD28-induced reactivation of latent HIV (GFP MFI) [2, 5]	LPS/IFNγ-mediated IL-6 secretion ([3]; L-glutamic acid 5 mM)	LPS/IFNγ-mediated TNFα secretion ([3]; L-glutamic acid 5 mM)	LPS/IFNγ-mediated anti-inflammatory IL-10 production ([3]; L-glutamic acid 5 mM)	LPS/IFNγ-mediated IL-6 secretion ([3]; pyruvate 2 mM)	LPS/IFNγ-mediated TNFα secretion ([3]; pyruvate 2 mM)	LPS/IFNγ-mediated IL-6 secretion [3, 6]	LPS/IFNγ-mediated TNFα secretion [3, 6]
N[C@@H](CCC(=O)O)C(=O)O [L-glutamic acid]	without impacting viability	inhibited	inhibited	without impacting viability	significantly inhibited	significantly inhibited	significantly inhibited	significantly inhibited	significantly increased				
CC(=O)C(=O)O [pyruvate, Pyruvic acid]										increased	increased	significantly increased	significantly increased
